Source: patent US11964973B2 (priority 2019, dated 2024)
Where two headings read alike, the source gives them in different places.

Experiments:
[1] = molecular target: DGKα (Homo sapiens (Human), UniProt P23743); assay: biochemical; assay type: biochemical; conditions: liposome (LIPGLO) assay; read-out: DGKα LIPGLO IC50
[2] = molecular target: human DGKζ (Homo sapiens (Human), UniProt Q13574); assay: biochemical; assay type: biochemical; conditions: read-out: DGKζ LIPGLO IC50
[3] = tested on: naïve human CD8 T cells; assay: CellTiter-Glo CD8 T cell proliferation assay; assay type: cell-based; conditions: read-out: CD8 GLO Normalized EC50
Method: Assay 4: CellTiter-Glo CD8 T Cell Proliferation Assay
Frozen naïve human CD8 T cells were thawed in RPMI+10% FBS, incubated for 2 h in 37° C., and counted. The 384-well tissue culture plate was coated overnight at 4° C. with 20 μl anti-human CD3 at 0.1 μg/mL in plain RPMI, which was removed off the plate before 20 k/40 μL CD8 T cells with 0.5 μg/ml soluble anti-human CD28 were added to each well. The compounds were echoed to the cell plate immediately after the cells were plated. After 72 h incubation at 37° C. incubator, 10 μL CellTiter-glo reagent (Promega catalog number G7570) was added to each well. The plate was vigorously shaken for 5 mins, incubated at room temperature for another 15 mins and read on Envision for CD8 T cell proliferation. In analysis, 0.1 μg/mL anti-CD3 and 0.5 μg/mL anti-CD28 stimulated CD8 T cell signal was background.

[4] = tested on: OT-1 CD8+ T cells with SIINFEKL-loaded MC38 tumor cells; assay: Murine cytotoxic T lymphocyte assay (IFN-γ); assay type: cell-based, mouse; conditions: murine cytotoxic T lymphocyte, IFN-γ, read-out: msCTL INFg IC50
Text: Assay 6: Murine Cytotoxic T Lymphocyte Assay
An antigen-specific cytolytic T-cell (CTL) assay was developed to evaluate functionally the ability of DGKα and DGKζ inhibitors to enhance effector T cell mediated tumor cell killing activity. CD8+ T-cells isolated from the OT-1 transgenic mouse recognize antigen presenting cells, MC38, that present the ovalbumin derived peptide […]. Recognition of the cognate antigen initiates the cytolytic activity of the OT-1 antigen-specific CD8+ T cells.
Functional CTL cells were generated as follows: OT-1 splenocytes from 8-12 week old mice were isolated and expanded in the presence of the […] peptide at 1 μg/mL and mIL2 at 10 U/mL. After three days, fresh media with […] was added. On day 5 of the expansion, the CD8+ T cells were isolated and ready for use. Activated CTL cells may be stored frozen for 6 months. Separately, one million MC38 tumor cells were pulsed with 1 μg/mL of […]-OVA peptide for 3 hours at 37° C. The cells were washed (3×) with fresh media to remove excess peptide. Finally, CTL cells that were pretreated with DGK inhibitors for 1 hour in a 96-well U bottom plate were combined with the antigen loaded MC38 tumor cells at a 1:10 ratio. The cells were then spun at 700 rpm for 5 min and placed in an incubator overnight at 37° C. After 24 hours, the supernatant was collected for analysis of IFN-γ cytokine levels by AlphaLisa purchased from Perkin Elmer.

[5] = tested on: Human venous whole blood (IFN-γ); assay: Human whole blood IFN-γ assay; assay type: cell-based; conditions: Homo sapiens, 24 h, human whole blood, anti-CD3 plus anti-CD28, 24 hours; read-out: INFg Whole Blood Normalized Agonist EC50
Method: Assay 10: Human Whole Blood IFN-γ Assay
Human venous whole blood (22.5 μL per well), obtained from healthy donors, was pre-treated with compounds for one hour at 37° C. in a humidified 95% air/5% CO2 incubator. The blood was stimulated with 2.5 μL anti-human CD3 and anti-CD28 mAb at a final concentration of 1 μg/mL each for 24 hours at 37° C. IFN-γ in the supernatants was measured using AlphLISA kit (Cat #AL217).

Chain of human DGKζ (Q13574 whole entry, looked up): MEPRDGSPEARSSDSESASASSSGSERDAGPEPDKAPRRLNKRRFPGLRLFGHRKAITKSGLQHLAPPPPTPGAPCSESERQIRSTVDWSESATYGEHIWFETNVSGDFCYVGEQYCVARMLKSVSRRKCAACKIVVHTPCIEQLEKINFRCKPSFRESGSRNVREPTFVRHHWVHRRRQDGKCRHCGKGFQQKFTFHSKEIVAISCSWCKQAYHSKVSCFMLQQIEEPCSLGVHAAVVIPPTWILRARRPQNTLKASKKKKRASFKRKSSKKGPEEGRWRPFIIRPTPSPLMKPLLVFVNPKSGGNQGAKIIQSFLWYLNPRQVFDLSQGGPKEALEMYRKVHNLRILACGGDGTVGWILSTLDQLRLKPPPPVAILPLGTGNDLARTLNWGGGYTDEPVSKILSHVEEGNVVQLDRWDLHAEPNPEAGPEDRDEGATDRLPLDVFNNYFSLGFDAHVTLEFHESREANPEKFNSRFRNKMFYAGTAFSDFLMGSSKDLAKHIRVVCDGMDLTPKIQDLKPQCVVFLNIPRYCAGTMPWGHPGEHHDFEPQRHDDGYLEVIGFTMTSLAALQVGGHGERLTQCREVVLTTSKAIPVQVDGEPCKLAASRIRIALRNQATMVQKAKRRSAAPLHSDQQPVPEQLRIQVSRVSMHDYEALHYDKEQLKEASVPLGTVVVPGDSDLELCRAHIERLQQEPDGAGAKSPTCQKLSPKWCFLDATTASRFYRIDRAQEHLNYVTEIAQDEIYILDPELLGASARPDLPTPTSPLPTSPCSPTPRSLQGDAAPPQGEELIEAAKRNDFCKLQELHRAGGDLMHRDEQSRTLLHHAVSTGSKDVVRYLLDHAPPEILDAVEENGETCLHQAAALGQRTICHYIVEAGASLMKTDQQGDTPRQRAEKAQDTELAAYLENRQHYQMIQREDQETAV
Chain of DGKα (P23743 whole entry, looked up): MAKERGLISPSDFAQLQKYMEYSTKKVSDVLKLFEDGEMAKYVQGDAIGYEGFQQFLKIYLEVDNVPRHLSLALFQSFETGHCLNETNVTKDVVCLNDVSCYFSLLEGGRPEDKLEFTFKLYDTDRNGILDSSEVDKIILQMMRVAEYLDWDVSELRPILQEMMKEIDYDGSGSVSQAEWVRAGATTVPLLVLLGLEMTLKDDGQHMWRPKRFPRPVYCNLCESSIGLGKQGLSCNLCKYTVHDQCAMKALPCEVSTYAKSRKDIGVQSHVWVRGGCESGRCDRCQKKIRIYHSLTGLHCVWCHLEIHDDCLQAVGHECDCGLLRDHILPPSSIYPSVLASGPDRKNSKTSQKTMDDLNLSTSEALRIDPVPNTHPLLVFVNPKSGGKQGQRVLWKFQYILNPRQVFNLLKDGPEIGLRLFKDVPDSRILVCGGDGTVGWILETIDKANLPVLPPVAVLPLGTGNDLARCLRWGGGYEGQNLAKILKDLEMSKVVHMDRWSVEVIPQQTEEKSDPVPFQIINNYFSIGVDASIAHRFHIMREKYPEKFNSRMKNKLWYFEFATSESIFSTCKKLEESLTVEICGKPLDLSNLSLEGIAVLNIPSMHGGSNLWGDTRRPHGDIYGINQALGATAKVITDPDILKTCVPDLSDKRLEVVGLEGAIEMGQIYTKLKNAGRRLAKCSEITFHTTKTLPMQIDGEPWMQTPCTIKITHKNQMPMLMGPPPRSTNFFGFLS

For `COc1ccc2c(n1)c(N1CCC(Oc3ccc(OC(F)(F)F)cc3)CC1)c(C#N)c(=O)n2C` [Example 48, 6-methoxy-1-methyl-2-oxo-4-(4-(4-(trifluoromethoxy)phenoxy)piperidin-1-yl)-1,2-dihydro-1,5-naphthyridine-3-carbonitrile], the IC50 [1] was 2700 nM, the IC50 ([2]; liposome (LIPGLO) assay) was 3.4 µM and the EC50 ([3]; Homo sapiens) was 130 nM. The IC50 ([4]; Mus musculus, MC-38) was 0.27 µM and the EC50 [5] was 6.4 µM.

Molecule `Cn1c(=O)c(C#N)c(N2CCC(Oc3ccc(OC(F)(F)F)c(Cl)c3)CC2)c2nc(Cl)ccc21` [Example 42, 6-chloro-4-(4-(3-chloro-4-(trifluoromethoxy)phenoxy)piperidin-1-yl)-1-methyl-2-oxo-1,2-dihydro-1,5-naphthyridine-3-carbonitrile] has an IC50 [1] of 5400 nM, an IC50 ([2]; liposome (LIPGLO) assay) of 240 µM and an EC50 ([3]; Homo sapiens) of 700 nM. For the same molecule, the IC50 ([4]; Mus musculus, MC-38) was 10 µM.

`Cn1c(=O)c(C#N)c(N2CCC(Oc3ccc(OC(F)(F)F)cc3Cl)CC2)c2nc(Cl)ccc21` [Example 41, 6-chloro-4-(4-(2-chloro-4-(trifluoromethoxy)phenoxy)piperidin-1-yl)-1-methyl-2-oxo-1,2-dihydro-1,5-naphthyridine-3-carbonitrile] showed an IC50 [1] of 1100 nM, an IC50 ([2]; liposome (LIPGLO) assay) of 23 µM and an EC50 ([3]; Homo sapiens) of 210 nM. It also gave an IC50 ([4]; Mus musculus, MC-38) of 10 µM.

`Cn1c(=O)c(C#N)c(N2CCC(Oc3ccc(OC(F)(F)F)cc3)CC2)c2nc(C#N)ccc21` [Example 50, 5-methyl-6-oxo-8-(4-(4-(trifluoromethoxy)phenoxy)piperidin-1-yl)-5,6-dihydro-1,5-naphthyridine-2,7-dicarbonitrile] gave an IC50 [1] of 1600 nM, an IC50 ([2]; liposome (LIPGLO) assay) of 12 µM and an EC50 ([3]; Homo sapiens) of 55 nM. It also gave an IC50 ([4]; Mus musculus, MC-38) of 0.99 µM and an EC50 [5] of 5 µM.

With `Cn1c(=O)c(C#N)c(N2CCC(Oc3ccc(F)c(F)c3)CC2)c2nc(Cl)ccc21` [Example 12, 6-chloro-4-(4-(3,4-difluorophenoxy)piperidin-1-yl)-1-methyl-2-oxo-1,2-dihydro-1,5-naphthyridine-3-carbonitrile] the IC50 [1] was 3200 nM, the IC50 ([2]; liposome (LIPGLO) assay) was 27 µM and the EC50 ([3]; Homo sapiens) was 2300 nM. It also gave an IC50 ([4]; Mus musculus, MC-38) of 3.8 µM and an EC50 [5] of 5 µM.

With `Cn1c(=O)c(C#N)c(N2CCC(Oc3ccccc3)CC2)c2nc(Cl)ccc21` [Example 46, 6-chloro-1-methyl-2-oxo-4-(4-phenoxypiperidin-1-yl)-1,2-dihydro-1,5-naphthyridine-3-carbonitrile] the IC50 [1] was 150 nM, the IC50 ([2]; liposome (LIPGLO) assay) was 27 µM and the EC50 ([3]; Homo sapiens) was 1200 nM. It also gave an IC50 ([4]; Mus musculus, MC-38) of 8.5 µM.

`Cn1c(=O)c(C#N)c(N2CCC(Oc3ccc(Cl)cc3)CC2)c2nc(Cl)ccc21` [Example 16, 6-chloro-4-(4-(4-chlorophenoxy)piperidin-1-yl)-1-methyl-2-oxo-1,2-dihydro-1,5-naphthyridine-3-carbonitrile] gave an IC50 [1] of 1700 nM, an EC50 ([3]; Homo sapiens) of 93 nM and an IC50 ([4]; Mus musculus, MC-38) of 1.1 µM. The EC50 [5] was 10 µM.

`Cc1cc(OC(F)(F)F)ccc1OC1CCN(c2c(C#N)c(=O)n(C)c3ccc(Cl)nc23)CC1` [Example 29, -chloro-1-methyl-4-(4-(2-methyl-4-(trifluoromethoxy)phenoxy)piperidin-1-yl)-2-oxo-1,2-dihydro-1,5-naphthyridine-3-carbonitrile] showed an IC50 [1] of 3800 nM, an IC50 [2] of 240 µM and an EC50 [3] of 5900 nM. It also gave an IC50 [4] of 10 µM.

`Cn1c(=O)c(C#N)c(N2CCC(Oc3ccc(OC(F)(F)F)cc3)CC2)c2nc(Cl)ccc21` [Example 19, 6-chloro-1-methyl-2-oxo-4-(4-(4-(trifluoromethoxy)phenoxy)piperidin-1-yl)-1,2-dihydro-1,5-naphthyridine-3-carbonitrile] showed an IC50 [1] of 320 nM, an EC50 ([3]; Homo sapiens) of 280 nM and an IC50 ([4]; Mus musculus, MC-38) of 0.21 µM. The EC50 [5] was 10 µM.

Work on `Cn1c(=O)c(C#N)c(N2CCC(Oc3ccc(C#N)c(Cl)c3)CC2)c2nc(Cl)ccc21` [Example 38, 6-chloro-4-(4-(3-chloro-4-cyanophenoxy)piperidin-1-yl)-1-methyl-2-oxo-1,2-dihydro-1,5-naphthyridine-3-carbonitrile] yielded an IC50 [1] of 1800 nM, an IC50 ([2]; liposome (LIPGLO) assay) of 9 µM and an EC50 ([3]; Homo sapiens) of 1600 nM. The IC50 ([4]; Mus musculus, MC-38) was 10 µM.

For `Cn1c(=O)c(C#N)c(N2CCC(Oc3ccccc3C#N)CC2)c2nc(Cl)ccc21` [Example 43, 6-chloro-4-(4-(2-cyanophenoxy)piperidin-1-yl)-1-methyl-2-oxo-1,2-dihydro-1,5-naphthyridine-3-carbonitrile], the IC50 [1] was 1500 nM, the IC50 ([2]; liposome (LIPGLO) assay) was 27 µM and the EC50 ([3]; Homo sapiens) was 10000 nM. The IC50 ([4]; Mus musculus, MC-38) was 10 µM.

Molecule `Cc1ccc(OC2CCN(c3c(C#N)c(=O)n(C)c4ccc(Cl)nc34)CC2)cc1Cl` [Example 40, 6-chloro-4-(4-(3-chloro-4-methylphenoxy)piperidin-1-yl)-1-methyl-2-oxo-1,2-dihydro-1,5-naphthyridine-3-carbonitrile] has an IC50 [1] of 740 nM, an IC50 ([2]; liposome (LIPGLO) assay) of 9 µM and an EC50 ([3]; Homo sapiens) of 1200 nM. For the same molecule, the IC50 ([4]; Mus musculus, MC-38) was 10 µM.

Molecule `Cn1c(=O)c(C#N)c(N2CCC(Oc3ccc(OC(F)(F)F)cc3)CC2)c2nc(Br)ccc21` [Example 47, 6-Bromo-1-methyl-2-oxo-4-(4-(4-(trifluoromethoxy)phenoxy)piperidin-1-yl)-1,2-dihydro-1,5-naphthyridine-3-carbonitrile] has an IC50 [1] of 450 nM, an IC50 ([2]; liposome (LIPGLO) assay) of 240 µM and an EC50 ([3]; Homo sapiens) of 490 nM. For the same molecule, the IC50 ([4]; Mus musculus, MC-38) was 0.68 µM.

Molecule `CN(C)C(=O)c1ccc(OC2CCN(c3c(C#N)c(=O)n(C)c4ccc(Cl)nc34)CC2)cc1` [Example 25, 4-((1-(6-chloro-3-cyano-1-methyl-2-oxo-1,2-dihydro-1,5-naphthyridin-4-yl)piperidin-4-yl)oxy)-N,N-dimethylbenzamide] has an IC50 [1] of 730 nM, an IC50 ([2]; liposome (LIPGLO) assay) of 240 µM and an EC50 ([3]; Homo sapiens) of 1200 nM. It also gave an IC50 ([4]; Mus musculus, MC-38) of 10 µM.

With `Cn1c(=O)c(C#N)c(N2CCC(Oc3cccc(C#N)c3)CC2)c2nc(Cl)ccc21` [Example 34, 6-chloro-4-(4-(3-cyanophenoxy)piperidin-1-yl)-1-methyl-2-oxo-1,2-dihydro-1,5-naphthyridine-3-carbonitrile] the IC50 [1] was 1100 nM, the IC50 ([2]; liposome (LIPGLO) assay) was 9 µM and the EC50 ([3]; Homo sapiens) was 4100 nM. The IC50 ([4]; Mus musculus, MC-38) was 8.5 µM.

With `Cn1c(=O)c(C#N)c(N2CCC(Oc3ccccc3OC(F)(F)F)CC2)c2nc(Cl)ccc21` [Example 33, 6-chloro-1-methyl-2-oxo-4-(4-(2-(trifluoromethoxy)phenoxy)piperidin-1-yl)-1,2-dihydro-1,5-naphthyridine-3-carbonitrile] the IC50 [1] was 2800 nM, the IC50 ([2]; liposome (LIPGLO) assay) was 240 µM and the EC50 ([3]; Homo sapiens) was 10000 nM. For the same molecule, the IC50 ([4]; Mus musculus, MC-38) was 3.8 µM.

`COc1cc(OC2CCN(c3c(C#N)c(=O)n(C)c4ccc(Cl)nc34)CC2)ccc1Cl` [Example 39, 6-chloro-4-(4-(4-chloro-3-methoxyphenoxy)piperidin-1-yl)-1-methyl-2-oxo-1,2-dihydro-1,5-naphthyridine-3-carbonitrile] showed an IC50 [1] of 350 nM, an IC50 ([2]; liposome (LIPGLO) assay) of 14 µM and an EC50 ([3]; Homo sapiens) of 130 nM. For the same molecule, the IC50 ([4]; Mus musculus, MC-38) was 3.7 µM.

`Cn1c(=O)c(C#N)c(N2CCC(Oc3cccc(C(F)(F)F)c3)CC2)c2nc(Cl)ccc21` [Example 24, 6-chloro-1-methyl-2-oxo-4-(4-(3-(trifluoromethyl)phenoxy)piperidin-1-yl)-1,2-dihydro-1,5-naphthyridine-3-carbonitrile] gave an IC50 [1] of 2000 nM, an IC50 ([2]; liposome (LIPGLO) assay) of 27 µM and an EC50 ([3]; Homo sapiens) of 750 nM. For the same molecule, the IC50 ([4]; Mus musculus, MC-38) was 1.5 µM.

For `Cn1c(=O)c(C#N)c(N2CCC(Oc3ccc(OC(C)(C)C)cc3)CC2)c2nc(Cl)ccc21` [Example 31, 4-(4-(4-(tert-butoxy)phenoxy)piperidin-1-yl)-6-chloro-1-methyl-2-oxo-1,2-dihydro-1,5-naphthyridine-3-carbonitrile], the IC50 [1] was 280 nM, the IC50 ([2]; liposome (LIPGLO) assay) was 11 µM and the EC50 ([3]; Homo sapiens) was 44 nM. For the same molecule, the IC50 ([4]; Mus musculus, MC-38) was 10 µM.

Work on `Cn1c(=O)c(C#N)c(N2CCC(Oc3ccc(C(F)(F)F)cc3)CC2)c2nc(Cl)ccc21` [Example 30, 6-chloro-1-methyl-2-oxo-4-(4-(4-(trifluoromethyl)phenoxy)piperidin-1-yl)-1,2-dihydro-1,5-naphthyridine-3-carbonitrile] yielded an IC50 [1] of 980 nM, an IC50 ([2]; liposome (LIPGLO) assay) of 240 µM and an EC50 ([3]; Homo sapiens) of 10000 nM. For the same molecule, the IC50 ([4]; Mus musculus, MC-38) was 3.5 µM.
